PubChem BioAssay (NCI)
“And” between values parts separate entries of the source, which are not always exact repeats. Equal entries are not always repeated.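 Briefly, cells in 96-well plates were exposed to five compound concentrations for 48 h, and endpoints were estimated by linear interpolation. Here, GI50 denotes the concentration required for 50% inhibition of growth. TGI denotes the concentration required for complete inhibition of growth.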

Assays:
Test in all cases: NCI tumour cell line growth inhibition, 48 h
OVCAR-5 ovarian = tested on: OVCAR-5 ovarian
DU-145 prostate = tested on: DU-145 prostate
NCI-H23 lung = tested on: NCI-H23 lung
NCI-H460 lung = tested on: NCI-H460 lung
MDA-MB-231 breast = tested on: MDA-MB-231 breast
CAKI-1 renal = tested on: CAKI-1 renal
PC-3 prostate = tested on: PC-3 prostate
MDA-MB-435 = tested on: MDA-MB-435
SK-MEL-5 melanoma = tested on: SK-MEL-5 melanoma
RXF 393 renal = tested on: RXF 393 renal
HL-60(TB) leukemia = tested on: HL-60(TB) leukemia
MALME-3M melanoma = tested on: MALME-3M melanoma
HOP-92 NSCLC = tested on: HOP-92 NSCLC
BT-549 breast = tested on: BT-549 breast
HT29 colon = tested on: HT29 colon
M19-MEL melanoma = tested on: M19-MEL melanoma
MOLT-4 leukemia = tested on: MOLT-4 leukemia
SNB-19 CNS = tested on: SNB-19 CNS
OVCAR-4 ovarian = tested on: OVCAR-4 ovarian
786-0 renal = tested on: 786-0 renal
SK-OV-3 ovarian = tested on: SK-OV-3 ovarian
SNB-75 CNS = tested on: SNB-75 CNS
RPMI-8226 leukemia = tested on: RPMI-8226 leukemia
NCI-H522 lung = tested on: NCI-H522 lung
HCT-116 colon = tested on: HCT-116 colon
HCC-2998 colon = tested on: HCC-2998 colon
P388/ADR leukemia = tested on: P388/ADR leukemia
LOX IMVI melanoma = tested on: LOX IMVI melanoma
CCRF-CEM leukemia = tested on: CCRF-CEM leukemia
UACC-62 melanoma = tested on: UACC-62 melanoma
KM20L2 colon = tested on: KM20L2 colon
MCF7 breast = tested on: MCF7 breast
OVCAR-3 ovarian = tested on: OVCAR-3 ovarian
SN12C renal = tested on: SN12C renal
SF-539 CNS = tested on: SF-539 CNS
OVCAR-8 ovarian = tested on: OVCAR-8 ovarian
HS 578T breast = tested on: HS 578T breast
IGROV1 ovarian = tested on: IGROV1 ovarian
DMS 114 small cell lung = tested on: DMS 114 small cell lung
COLO 205 colon = tested on: COLO 205 colon
P388 leukemia = tested on: P388 leukemia
SK-MEL-2 melanoma = tested on: SK-MEL-2 melanoma
RXF-631 renal = tested on: RXF-631 renal
ACHN renal = tested on: ACHN renal
HCT-15 colon = tested on: HCT-15 colon
KM12 colon = tested on: KM12 colon
TK-10 renal = tested on: TK-10 renal
A549 NSCLC = tested on: A549 NSCLC
SW-620 colon = tested on: SW-620 colon
K-562 leukemia = tested on: K-562 leukemia
U251 CNS = tested on: U251 CNS
T-47D breast = tested on: T-47D breast
UACC-257 melanoma = tested on: UACC-257 melanoma
SK-MEL-28 melanoma = tested on: SK-MEL-28 melanoma
NCI/ADR-RES ovarian = tested on: NCI/ADR-RES ovarian
EKVX NSCLC = tested on: EKVX NSCLC
M14 melanoma = tested on: M14 melanoma
SF-268 CNS = tested on: SF-268 CNS
NCI-H226 lung = tested on: NCI-H226 lung
XF 498 CNS = tested on: XF 498 CNS
HOP-18 NSCLC = tested on: HOP-18 NSCLC
DMS 273 small cell lung = tested on: DMS 273 small cell lung
UO-31 renal = tested on: UO-31 renal
LXFL 529 NSCLC = tested on: LXFL 529 NSCLC
SNB-78 CNS = tested on: SNB-78 CNS
A498 renal = tested on: A498 renal
DLD-1 colon = tested on: DLD-1 colon

Compound: CC[C@@H](C)[C@H]([C@H](CC(=O)N1CCC[C@@H]1[C@@H](OC)[C@H](C)C(=O)N[C@H](Cc1ccccc1)c1nccs1)OC)N(C)C(=O)[C@H](NC(=O)[C@@H](C(C)C)N(C)C)C(C)C
- GI50 (OVCAR-5 ovarian): < 15.2 nM
- GI50 (DU-145 prostate): 0.0148 nM
- TGI (DU-145 prostate): 0.106 nM
- TGI (NCI-H23 lung): 5.54 nM and < 215 nM
- TGI (NCI-H460 lung): 1.95 nM
- GI50 (MDA-MB-231 breast): 0.147 nM
- TGI (MDA-MB-231 breast): 0.867 nM and < 48 nM
- GI50 (CAKI-1 renal): 0.245 nM and 0.425 nM
- GI50 (PC-3 prostate): 0.00777 nM
- TGI (PC-3 prostate): > 65800 nM
- TGI (MDA-MB-435): 0.00294 nM
- TGI (SK-MEL-5 melanoma): 0.656 nM
- GI50 (RXF 393 renal): 17.9 nM
- GI50 (HL-60(TB) leukemia): 0.425 nM
- GI50 (MALME-3M melanoma): 0.425 nM
- GI50 (HOP-92 NSCLC): 0.425 nM
- GI50 (BT-549 breast): 0.0848 nM
- TGI (BT-549 breast): > 100000 nM
- TGI (HT29 colon): 0.849 nM
- GI50 (M19-MEL melanoma): 0.425 nM
- TGI (MOLT-4 leukemia): > 28400 nM
- TGI (SNB-19 CNS): 7.44 nM
- GI50 (OVCAR-4 ovarian): 1200 nM and 588 nM
- TGI (786-0 renal): 44100 nM
- GI50 (SK-OV-3 ovarian): 0.079 nM
- GI50 (SNB-75 CNS): 0.425 nM
- GI50 (RPMI-8226 leukemia): 0.425 nM
- GI50 (NCI-H522 lung): 0.0657 nM
- TGI (NCI-H522 lung): 0.351 nM
- TGI (HCT-116 colon): 4.67 nM
- GI50 (HCC-2998 colon): 0.425 nM
- TGI (HCC-2998 colon): 1.76 nM and 2.34 nM
- TGI (P388/ADR leukemia): 0.573 nM
- GI50 (LOX IMVI melanoma): 0.425 nM
- GI50 (CCRF-CEM leukemia): 0.257 nM and 0.425 nM
- GI50 (UACC-62 melanoma): 0.425 nM
- TGI (KM20L2 colon): 0.234 nM
- TGI (MCF7 breast): > 100000 nM
- TGI (OVCAR-3 ovarian): 0.158 nM and < 87 nM
- GI50 (SN12C renal): 0.425 nM
- TGI (SN12C renal): 4250 nM and > 14700 nM
- TGI (SF-539 CNS): 1.61 nM
- GI50 (OVCAR-8 ovarian): 0.425 nM
- GI50 (HS 578T breast): 0.0695 nM
- TGI (HS 578T breast): 4060 nM
- GI50 (IGROV1 ovarian): 0.425 nM
- TGI (DMS 114 small cell lung): 1.23 nM
- TGI (COLO 205 colon): 0.302 nM
- TGI (P388 leukemia): 581 nM
- GI50 (SK-MEL-2 melanoma): < 22.9 nM
- TGI (RXF-631 renal): 7.31 nM
- TGI (ACHN renal): > 100000 nM
- TGI (HCT-15 colon): 5.4 nM
- GI50 (KM12 colon): 0.425 nM
- GI50 (TK-10 renal): 310 nM
- TGI (TK-10 renal): 98300 nM
- GI50 (A549 NSCLC): 0.425 nM
- GI50 (SW-620 colon): 0.425 nM
- GI50 (K-562 leukemia): 0.425 nM
- TGI (K-562 leukemia): 2860 nM and > 4640 nM
- TGI (U251 CNS): 1.43 nM
- TGI (T-47D breast): > 100000 nM
- GI50 (UACC-257 melanoma): 0.425 nM and < 58.9 nM
- GI50 (SK-MEL-28 melanoma): 1260 nM
- TGI (SK-MEL-28 melanoma): > 100000 nM
- GI50 (NCI/ADR-RES ovarian): 0.317 nM
- TGI (NCI/ADR-RES ovarian): < 215 nM

Compound: O=C(N/C(=C\c1ccc(Br)cc1)c1nc2ccccc2s1)c1ccccc1
- TGI (OVCAR-5 ovarian): > 100000 nM
- TGI (NCI-H23 lung): > 100000 nM
- TGI (EKVX NSCLC): > 100000 nM
- TGI (NCI-H460 lung): > 100000 nM
- TGI (CAKI-1 renal): > 100000 nM
- TGI (SK-MEL-5 melanoma): > 100000 nM
- TGI (RXF 393 renal): > 100000 nM
- TGI (MALME-3M melanoma): > 100000 nM
- TGI (HOP-92 NSCLC): > 100000 nM
- TGI (HT29 colon): > 100000 nM
- TGI (M14 melanoma): > 100000 nM
- TGI (M19-MEL melanoma): > 100000 nM
- TGI (MOLT-4 leukemia): > 100000 nM
- TGI (SNB-19 CNS): > 100000 nM
- TGI (OVCAR-4 ovarian): > 100000 nM
- TGI (786-0 renal): > 100000 nM
- TGI (SK-OV-3 ovarian): > 100000 nM
- TGI (SNB-75 CNS): > 100000 nM
- TGI (RPMI-8226 leukemia): > 100000 nM
- TGI (SF-268 CNS): > 100000 nM
- TGI (NCI-H522 lung): > 100000 nM
- TGI (HCT-116 colon): > 100000 nM
- TGI (LOX IMVI melanoma): > 100000 nM
- TGI (CCRF-CEM leukemia): > 100000 nM
- TGI (UACC-62 melanoma): > 100000 nM
- TGI (KM20L2 colon): > 100000 nM
- TGI (OVCAR-3 ovarian): > 100000 nM
- TGI (SN12C renal): > 100000 nM
- TGI (SF-539 CNS): > 100000 nM
- TGI (OVCAR-8 ovarian): > 100000 nM
- TGI (NCI-H226 lung): > 100000 nM
- TGI (XF 498 CNS): > 100000 nM
- TGI (IGROV1 ovarian): > 100000 nM
- TGI (DMS 114 small cell lung): > 100000 nM
- TGI (HOP-18 NSCLC): > 100000 nM
- TGI (COLO 205 colon): > 100000 nM
- TGI (SK-MEL-2 melanoma): > 100000 nM
- TGI (RXF-631 renal): > 100000 nM
- TGI (DMS 273 small cell lung): > 100000 nM
- TGI (UO-31 renal): > 100000 nM
- TGI (ACHN renal): > 100000 nM
- TGI (HCT-15 colon): > 100000 nM
- TGI (KM12 colon): > 100000 nM
- TGI (TK-10 renal): > 100000 nM
- TGI (A549 NSCLC): > 100000 nM
- TGI (SW-620 colon): > 100000 nM
- TGI (K-562 leukemia): > 100000 nM
- TGI (U251 CNS): > 100000 nM
- TGI (LXFL 529 NSCLC): > 100000 nM
- TGI (SNB-78 CNS): > 100000 nM
- TGI (UACC-257 melanoma): > 100000 nM
- TGI (A498 renal): > 100000 nM
- TGI (SK-MEL-28 melanoma): > 100000 nM
- TGI (DLD-1 colon): > 100000 nM
